Like-named read-outs stand apart in the source and are kept apart here. Values belong to the compound of their own block, whether it stands above or below them.
Key:
Hela cells = experiment: Cytological evaluation in rhIFN-γ stimulated Hela cells; format: cell-based; settings: rhIFN-γ 50 ng/ml, read-out: Hela Cell IC50
Method: Test substances: Compounds 1-3 of the present invention, prepared as described in the previous specific Examples.
Hela cell line (Cell Bank, Chinese Academy of Sciences)
Recombinant human IFN-γ (rhIFN-γ, purchased from R&D Systems, Cat. No. 285-IF-100)
Cell plating: Hela cell suspension was prepared with fresh phenol red-free DMEM medium, and 20,000 cells/well were added to a 96-well cell culture plate, and cultured in 5% carbon dioxide at 37° C. overnight.
Preparation of compounds: the compounds were made up into 0.5 mM solution with DMSO, and the compounds were diluted 3.16 times with DMSO to obtain 8 compound mother liquors of concentration gradients (500×), and diluted with cell culture medium to prepare 10× dilutions.
Medication and incubation: After the cells were seeded and cultured overnight, 10 μL of a compound of the corresponding diluted mother liquor (10×) was added to each well and incubated for 1 hour, then 10 μL of 500 ng/ml rhIFN-γ was added, the final volume of each well was 100 μL. The negative control wells contained 100 μL of 0.5% DMSO cell culture medium and Hela cells. The positive control wells were the wells where rhIFN-γ at a final concentration of 50 ng/ml was added to the negative control wells, and the background control wells contained 100 μL of cell culture medium. After incubation in a 37 ° C. incubator for 24 hours. the cell morphology was observed under an inverted microscope.
Detection: After the cell plate was centrifuged, 80 μL of the supernatant was taken and added to a Corning 96-well plate, 10 μL of trichloroacetic acid was added to each well, shaken, placed in a 60 ° C. incubator for 30 minutes, and centrifuged at 2500 rpm for 5 minutes. 45 μL of the supernatant was taken and transferred to a new plate, 45 μL of chromogenic solution was added, shaken to make the reaction uniform. After incubating at room temperature for 15 minutes, the absorbance at 492 nm wavelength was read.

IDO-1 = target: T1, IDO-1 (Homo sapiens, UniProt P14902); experiment: Enzymatic assay, IDO-1; format: biochemical
T1 construct: made in house
Method: (§1) Test substance: Compound 1 of the present invention, prepared according to the method of Example 1 or the Step 3 of Example 5
(§2) I. Experimental materials and instruments
(§3) Preparation of compound: The compound was made up into 1 mM compound mother liquor with DMSO, and then the compound was diluted 3.16 times with DMSO to obtain 10 concentration gradients (100×) of the compound of the diluted mother liquors..
(§4) Medication and incubation: 10 μL of 100× compound of the diluted mother liquors were added into a 96-well plate, to which was added 10 μL of enzyme solution (IDO-1 or TDO), centrifuged at 2000 rpm for 1 minute, and incubated at room temperature for 30 minutes. 4% DMSO enzyme-free solution was used as a negative control, and 4% DMSO enzyme-containing solution was used as a positive control. 20 μL of substrate mixture (L-tryptophan, ascorbate, methylene blue, catalase) was added and incubated for 1 hour at room temperature, then 20 μL of stop solution was added to the experimental plate to terminate the reaction. After shaking and mixing, incubation was carried out at 60° C. for 30 minutes. […]
(§5) Detection: A microplate reader was used to detect the absorbance value at 492 nm.
(§6) Calculation: The inhibition rate was calculated according to the following formula, using the Spectramax program to fit the curve slope, and using GraphPad Prism5.0 to fit the IC50: […]

[1] = Evaluation of pharmacokinetics in mice; format: in vivo, C57BL/6 female mice; settings: for Cl_obs / Vz_obs / tz 1/2 / AUC(0-t) / AUC(0-inf): IV 5 mg/kg, C57BL/6 female mice, mean; for AUC(0-t) / AUC(0-inf): mouse, plasma; for AUC(0-inf): read-out: AUCINF_obs
Method: Test substance: Compound 1 of the present invention,prepared according to the method of Example 1 or Step 3 of Example 5;
Compound R, prepared as described in Example 8.
Animal: C57BL/6 female mice
The Compound 1 used in the test was dissolved in 10% DMA+10% (30% solutol)+80% saline to prepare a solution, and the non-deuterated compound was dissolved in 10% DMA+10% PEG+80% saline to prepare a solution. C57BL/6 female mice were administered intravenously with Compound 1 at a dose of 5.0 mg/kg. The time points for blood sampling were: 5 min, 15 min, 30 min, 1 h, 2 h, 4 h, 6 h, 8 h, and 24 h. About 100 μL of blood was collected from the venous plexus, and the blood sample was placed in an anti-coagulation tube containing EDTA-K2. The blood sample was centrifuged at 8000 rpm for 6 minutes at 4° C. to obtain a plasma sample, wherein the plasma must be prepared within 30 minutes after blood sampling, and stored in −80° C. refrigerator before plasma testing.
The sample (−80° C.) to be tested was taken out from the refrigerator, melted at room temperature and vortexed for 5 minutes; 10 μL of plasma samples of 3 different individuals were precisely pipetted into 1.5 mL centrifuge tubes (for standard curve of plasma, 30 μL); 200 μL of 100 ng/mL internal standard working solution was added, and mixed well; vortexed for 5 min, then centrifuged for 5 min (12000 rpm); precisely pipetted 50 μL of supernatant into a 96-well plate to which was added 150 μL/well of water in advance; vortexed and mixed for 5 min. The injection volume was 15 μL, and LC-MS/MS measurement was carried out.
The concentrations of test substance were used from the analysis results of AB Analyst 1.6.3. Microsoft Excel was used to calculate the parameters such as mean, standard deviation, and coefficient of variation (those directly output from Analyst 1.6.3 were not calculated). The PK parameters were calculated using Pharsight Phoenix 6.1 software NCA.

CT26 cells = experiment: In vivo pharmacodynamics, subcutaneous homograft model with colon cancer cell CT26 in mouse; parameters: species or system Balb/C mice; settings: 150 mg/kg PO Bid 10 days, CT26 tumor-bearing mice
Method: Test substance: Compound 1 of the present invention, which structure was shown in the foregoing.
CT26 cells were cultured in RPMI1640 medium containing 10% fetal bovine serum. CT26 cells in exponential growth phase were collected, and resuspended in PBS to a suitable concentration for subcutaneous tumor inoculation in mice.
0.1 mL of cell suspension (cells suspended in PBS) containing about 5×10^5 CT26 cells was subcutaneously inoculated into the skin of the right back of female Balb/C mice. The mice were grouped and administrated when the average tumor volume reached about 100 mm^3. Grouping method: weighing animals before administration, and measuring tumor volume. According to tumor volume, the mice were grouped using block design, 9 mice in each group.
Administration was performed according to Table 7 below.
The animals' health and death were monitored daily, their body weights and tumor volumes were measured twice a week, and samples were collected after the last dose. The curative effect of tumor volume was evaluated by TGI%, wherein relative tumor suppression rate TGI (%) was: TGI=1-T/C (%). T/C% was the relative tumor increment rate, that is, the percentage of tumor volume in the treatment group relative to that of the control group at a specific time point. […]

TDO = target: T2, TDO (Homo sapiens, UniProt P48775); experiment: Enzymatic assay, TDO; format: biochemical
T2 construct: made in house
Method: as §1, §2, §3, §4, §5, §6

[2] = Stability test of Crystalline Form A; format: physicochemical
Excerpt: Method: Crystalline Form A was left open at high temperature and in high humidity conditions, and XRPD patterns were compared to […]. The data in Table 5 below were obtained.

[3] = Stability test of Crystalline Form B; format: physicochemical
Excerpt: Method: Crystalline Form B was left open for 10 days at high temperature and in high humidity conditions. The properties, measured content and impurities of the Crystalline Form B were observed, and the XRPD patterns were compared to obtain the data in Table 6.

[4] = IV 5 mg/kg mice, compared with Compound R
[5] = High temperature, 60° C., left open, 10 days

T2 sequence (P48775 whole entry, species assumed): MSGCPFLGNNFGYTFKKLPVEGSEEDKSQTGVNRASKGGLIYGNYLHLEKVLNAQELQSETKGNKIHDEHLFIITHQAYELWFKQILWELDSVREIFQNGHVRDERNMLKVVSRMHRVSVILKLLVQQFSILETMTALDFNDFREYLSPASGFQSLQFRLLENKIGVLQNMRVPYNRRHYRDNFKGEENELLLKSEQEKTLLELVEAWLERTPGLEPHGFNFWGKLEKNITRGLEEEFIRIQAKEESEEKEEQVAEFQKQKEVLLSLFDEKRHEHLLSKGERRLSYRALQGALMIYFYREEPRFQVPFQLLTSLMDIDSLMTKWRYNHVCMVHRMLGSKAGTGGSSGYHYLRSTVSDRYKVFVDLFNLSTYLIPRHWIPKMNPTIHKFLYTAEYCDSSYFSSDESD
T1 sequence (P14902 whole entry, species assumed): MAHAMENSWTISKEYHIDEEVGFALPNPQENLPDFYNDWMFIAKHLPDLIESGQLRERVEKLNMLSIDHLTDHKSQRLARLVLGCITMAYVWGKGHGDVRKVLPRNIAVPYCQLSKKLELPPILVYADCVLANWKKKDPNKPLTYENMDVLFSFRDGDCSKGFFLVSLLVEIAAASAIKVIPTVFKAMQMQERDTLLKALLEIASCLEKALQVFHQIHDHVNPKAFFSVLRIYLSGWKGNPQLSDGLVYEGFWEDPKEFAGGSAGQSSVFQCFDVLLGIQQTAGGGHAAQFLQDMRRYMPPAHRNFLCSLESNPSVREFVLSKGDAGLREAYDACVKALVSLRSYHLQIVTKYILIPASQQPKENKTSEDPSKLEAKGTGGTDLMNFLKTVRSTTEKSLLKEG

IC50 (Hela cells; 24 hours): 99.7 nM | IC50 (IDO-1): 85.4 nM | clearance rate (in words) [1, 4]: lower | exposure amount (in words) [1, 4]: higher | Cl_obs [1]: 36.5 mL/min/kg | Vz_obs [1]: 11.7 L/kg | tz 1/2 [1]: 3.70 h | AUC(0-t) [1]: 2040 ng·h/mL | AUC(0-inf) [1]: 2290 ng·h/mL | IC50 (TDO): 5040 nM
SMILES: [2H]C1([2H])CC(Nc2nonc2C(=NO)Nc2ccc(F)c(Br)c2)CC([2H])([2H])S1(=O)=O [Compound 1, N-(3-bromo-4-fluorophenyl)-4-((1,1-dioxotetrahydro-2H-thian-4-yl-2,2,6,6-d4)amino)-N′-hydroxy-1,2,5-oxadiazole-3-carboxamidine]
TGI (tumor volume inhibition rate) (CT26 cells): 38% | Tumor volume (CT26 cells): 414.32 ± 52.44 mm^3

IC50 (Hela cells; Homo sapiens, HeLa, 24 h): 50.5 nM
SMILES: [2H]C1([2H])CC(Nc2nonc2C(=NO)Nc2ccc(F)c(Br)c2)C([2H])([2H])S1(=O)=O (stereo not drawn) [Compound 2, N-(3-bromo-4-fluorophenyl)-4-((1,1-dioxotetrahydro-thiophen-3-yl-2,2,5,5-d4)amino)-N-hydroxy-1,2,5-oxadiazole-3-carboxamidine]

IC50 (Hela cells; Homo sapiens, HeLa, 24 h): 49.6 nM
SMILES: [2H]C1([2H])C(Nc2nonc2C(=NO)Nc2ccc(F)c(Br)c2)C([2H])([2H])S1(=O)=O [Compound 3, N-(3-bromo-4-fluorophenyl)-4-((1,1-dioxothiacyclobutan-3-yl-2,2,4,4-d4)amino)-N′-hydroxy-1,2,5-oxadiazole-3-carboxamidine]

Cl_obs [1]: 73.2 mL/min/kg | Vz_obs [1]: 12 L/kg | tz 1/2 [1]: 1.81 h | AUC(0-t) [1]: 1120 ng·h/mL | AUC(0-inf) [1]: 1140 ng·h/mL
SMILES: O=S1(=O)CCC(Nc2nonc2C(=NO)Nc2ccc(F)c(Br)c2)CC1 [Compound R, N-(3-bromo-4-fluorophenyl)-4-((1,1-dioxotetrahydro-2H-thian-4-yl)amino)-N′-hydroxy-1,2,5-oxadiazole-3-carboxamidine, reference compound]

IC50 (Hela cells; 24 hours): 40 nM | Impurity, % ([2]; 0-Day): 0.74% | XRPD ([2]; 0-Day): Crystal Form A, FIG. 1 | XRPD ([2]; High temperature, 105° C., left open, 3 days): Consistent with the 0-day XRPD | XRPD ([2]; RH 92.5%, left open, 3 days): Consistent with the 0-day XRPD | Impurity, % ([2]; RH 92.5%, left open, 10 days): 0.99%
SMILES: [2H]C1([2H])CC(Nc2nonc2C(=NO)Nc2ccc(F)c(Br)c2)CC([2H])([2H])S1(=O)=O [Crystal Form A of Compound 1]

Content, % ([3]; 0-Day): 99.6% | Impurity, % ([3]; 0-Day): 0.17% | Properties ([3]; 0-Day): Off-white | XRPD ([3]; 0-Day): Crystal Form B, | Content, % [3, 5]: 99.4% | Impurity, % [3, 5]: 0.16% | Properties [3, 5]: Off-white | Content, % ([3]; RH 92.5%, left open, 10 days): 99.3% | Impurity, % ([3]; RH 92.5%, left open, 10 days): 0.15% | Properties ([3]; RH 92.5%, left open, 10 days): Off-white | IC50 (Hela cells; 24 hours): 30 nM
SMILES: [2H]C1([2H])CC(Nc2nonc2C(=NO)Nc2ccc(F)c(Br)c2)CC([2H])([2H])S1(=O)=O [Crystal Form B of Compound 1]

From patent US20200361919A1, “DEUTERATED INDOLEAMINE 2,3-DIOXYGENASE INHIBITOR AND APPLICATION THEREOF” (NANJING TRANSTHERA BIOSCIENCES CO. LTD., priority 2017, published 2020)
